From paper PMC9653409, “Generative deep learning enables the discovery of a potent and selective RIPK1 inhibitor” (Nature Communications, 2022)
Read-outs that look alike come from different tables or passages of the source.

Key:
Assay in all cases: Kinase inhibitory activity profiling of RI-962@10 µM (406 kinases, Eurofins)
Format in all cases: biochemical
[1] = biological target: panel of human kinases (kinase named in endpoint) (Homo sapiens, UniProt O14757); conditions: 10 µM; read-out: Activity (%), CHK1(h)
Procedure: (§1) In vitro kinase activity assays were conducted through the Kinase Profiling Services provided by Eurofins (Eurofins, France). The protocol for the RIPK1 assay is briefly described as follows (Protocols for other kinases are very similar and can be found in http://www.eurofins.com/pharmadiscovery). RIPK1 kinase was incubated with the test compound in assay buffer containing 8 mM MOPS (pH 7.0), 0.2 mM EDTA, 250 μM […], 10 mM magnesium acetate, and 10 μM [γ-33P]-ATP for 15 min at room temperature. The reaction was initiated by the addition of the Mg/ATP mixture. After incubation for 40 min at room temperature, and the reaction was stopped by the addition of 3% phosphoric acid. A 10 μL portion of the reaction mixture was then spotted onto a P30 filter mat and washed four times for 4 min in 0.425% phosphoric acid and once in methanol prior to drying and scintillation counting.

[2] = biological target: panel of human kinases (kinase named in endpoint) (Homo sapiens, UniProt Q9UQM7); conditions: 10 µM; read-out: Activity (%), CaMKIIα(h)
Procedure: as §1

[3] = biological target: panel of human kinases (kinase named in endpoint) (Homo sapiens, UniProt P30530); conditions: 10 µM; read-out: Activity (%), Axl(h)
Procedure: as §1

[4] = biological target: panel of human kinases (kinase named in endpoint) (Homo sapiens, UniProt Q8N568); conditions: 10 µM; read-out: Activity (%), DCAMKL2(h)
Procedure: as §1

[5] = biological target: panel of human kinases (kinase named in endpoint) (Homo sapiens, UniProt P35626); conditions: 10 µM; read-out: Activity (%), GRK3(h)
Procedure: as §1

[6] = biological target: panel of human kinases (kinase named in endpoint) (Homo sapiens, UniProt P09769); conditions: 10 µM; read-out: Activity (%), Fgr(h)
Procedure: as §1

[7] = biological target: panel of human kinases (kinase named in endpoint) (Homo sapiens, UniProt P43250); conditions: 10 µM; read-out: Activity (%), GRK6(h)
Procedure: as §1

[8] = biological target: panel of human kinases (kinase named in endpoint) (Homo sapiens, UniProt O75747); conditions: 10 µM; read-out: Activity (%), PI3KC2g(h)
Procedure: as §1

[9] = biological target: panel of human kinases (kinase named in endpoint) (Homo sapiens, UniProt Q13315); conditions: 10 µM; read-out: Activity (%), ATM(h)
Procedure: as §1

[10] = biological target: panel of human kinases (kinase named in endpoint) (Homo sapiens, UniProt Q04912); conditions: 10 µM; read-out: Activity (%), Ron(h)
Procedure: as §1

[11] = biological target: panel of human kinases (kinase named in endpoint) (Homo sapiens, UniProt P54753); conditions: 10 µM; read-out: Activity (%), EphB3(h)
Procedure: as §1

[12] = biological target: panel of human kinases (kinase named in endpoint) (Homo sapiens, UniProt P51817); conditions: 10 µM; read-out: Activity (%), PrKX(h)
Procedure: as §1

[13] = biological target: panel of human kinases (kinase named in endpoint) (Homo sapiens, UniProt Q9UPE1); conditions: 10 µM; read-out: Activity (%), MSSK1(h)
Procedure: as §1

[14] = biological target: panel of human kinases (kinase named in endpoint) (Homo sapiens, UniProt P15056); conditions: 10 µM; read-out: Activity (%), B-Raf(h)
Procedure: as §1

[15] = biological target: panel of human kinases (kinase named in endpoint) (Homo sapiens, UniProt Q9UPZ9); conditions: 10 µM; read-out: Activity (%), ICK(h)
Procedure: as §1

[16] = biological target: panel of human kinases (kinase named in endpoint) (Homo sapiens, UniProt Q16654); conditions: 10 µM; read-out: Activity (%), PDHK4(h)
Procedure: as §1

[17] = biological target: panel of human kinases (kinase named in endpoint) (Homo sapiens, UniProt P24723); conditions: 10 µM; read-out: Activity (%), PKCη(h)
Procedure: as §1

[18] = biological target: panel of human kinases (kinase named in endpoint) (Homo sapiens, UniProt Q13153); conditions: 10 µM; read-out: Activity (%), PAK1(h)
Procedure: as §1

[19] = biological target: panel of human kinases (kinase named in endpoint) (Homo sapiens, UniProt P08631); conditions: 10 µM
Procedure: as §1

[20] = biological target: panel of human kinases (kinase named in endpoint) (Homo sapiens, UniProt Q15831); conditions: 10 µM; read-out: Activity (%), LKB1(h)
Procedure: as §1

[21] = tested on: panel of human kinases (kinase named in endpoint); conditions: 10 µM
Procedure: as §1

[22] = biological target: panel of human kinases (kinase named in endpoint) (Homo sapiens, UniProt P00519); conditions: 10 µM; read-out: Activity (%), Abl(h)
Procedure: as §1

[23] = biological target: panel of human kinases (kinase named in endpoint) (Homo sapiens, UniProt O75914); conditions: 10 µM; read-out: Activity (%), PAK3(h)
Procedure: as §1

[24] = biological target: panel of human kinases (kinase named in endpoint) (Homo sapiens, UniProt Q96BR1); conditions: 10 µM; read-out: Activity (%), SGK3(h)
Procedure: as §1

[25] = biological target: panel of human kinases (kinase named in endpoint) (Homo sapiens, UniProt P29322); conditions: 10 µM; read-out: Activity (%), EphA8(h)
Procedure: as §1

[26] = biological target: panel of human kinases (kinase named in endpoint) (Homo sapiens, UniProt Q9BZL6); conditions: 10 µM; read-out: Activity (%), PKD2(h)
Procedure: as §1

Sequence of panel of human kinases (kinase named in endpoint) (Homo sapiens, UniProt P08631) (P08631 whole entry): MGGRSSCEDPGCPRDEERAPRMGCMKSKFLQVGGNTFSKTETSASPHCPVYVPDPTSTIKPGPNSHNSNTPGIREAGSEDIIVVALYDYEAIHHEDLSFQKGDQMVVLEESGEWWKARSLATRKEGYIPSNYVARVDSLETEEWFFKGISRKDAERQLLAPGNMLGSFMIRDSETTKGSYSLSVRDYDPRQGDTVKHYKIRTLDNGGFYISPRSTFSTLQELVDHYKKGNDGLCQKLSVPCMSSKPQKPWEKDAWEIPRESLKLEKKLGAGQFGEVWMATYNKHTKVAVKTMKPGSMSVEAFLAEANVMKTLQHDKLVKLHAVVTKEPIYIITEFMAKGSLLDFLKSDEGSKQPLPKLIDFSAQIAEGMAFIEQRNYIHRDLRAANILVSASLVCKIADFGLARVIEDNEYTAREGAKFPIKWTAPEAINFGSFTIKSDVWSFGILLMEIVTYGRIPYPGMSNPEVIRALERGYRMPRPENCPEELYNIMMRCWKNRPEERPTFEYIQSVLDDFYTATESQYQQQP
Sequence of panel of human kinases (kinase named in endpoint) (Homo sapiens, UniProt P24723) (P24723 whole entry): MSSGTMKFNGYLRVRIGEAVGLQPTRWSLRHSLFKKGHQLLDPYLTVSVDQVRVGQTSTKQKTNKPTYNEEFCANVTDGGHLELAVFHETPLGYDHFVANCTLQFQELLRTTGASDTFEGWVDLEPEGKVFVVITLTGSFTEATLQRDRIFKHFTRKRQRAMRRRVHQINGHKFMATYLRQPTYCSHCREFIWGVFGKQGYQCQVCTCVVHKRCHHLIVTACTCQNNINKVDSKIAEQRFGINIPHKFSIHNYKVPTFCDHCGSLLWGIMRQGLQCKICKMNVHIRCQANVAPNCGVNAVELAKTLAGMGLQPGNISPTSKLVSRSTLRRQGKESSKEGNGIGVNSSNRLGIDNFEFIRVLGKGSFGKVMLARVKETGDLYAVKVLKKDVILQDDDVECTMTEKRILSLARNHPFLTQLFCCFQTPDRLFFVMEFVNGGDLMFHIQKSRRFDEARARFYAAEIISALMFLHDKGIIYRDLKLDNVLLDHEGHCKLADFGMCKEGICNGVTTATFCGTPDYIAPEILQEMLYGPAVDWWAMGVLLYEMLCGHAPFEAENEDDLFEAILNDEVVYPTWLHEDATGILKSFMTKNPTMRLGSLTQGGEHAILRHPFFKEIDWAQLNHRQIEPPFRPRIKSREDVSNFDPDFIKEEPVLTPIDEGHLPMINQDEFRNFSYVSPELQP
Sequence of panel of human kinases (kinase named in endpoint) (Homo sapiens, UniProt Q04912) (Q04912 25-1400): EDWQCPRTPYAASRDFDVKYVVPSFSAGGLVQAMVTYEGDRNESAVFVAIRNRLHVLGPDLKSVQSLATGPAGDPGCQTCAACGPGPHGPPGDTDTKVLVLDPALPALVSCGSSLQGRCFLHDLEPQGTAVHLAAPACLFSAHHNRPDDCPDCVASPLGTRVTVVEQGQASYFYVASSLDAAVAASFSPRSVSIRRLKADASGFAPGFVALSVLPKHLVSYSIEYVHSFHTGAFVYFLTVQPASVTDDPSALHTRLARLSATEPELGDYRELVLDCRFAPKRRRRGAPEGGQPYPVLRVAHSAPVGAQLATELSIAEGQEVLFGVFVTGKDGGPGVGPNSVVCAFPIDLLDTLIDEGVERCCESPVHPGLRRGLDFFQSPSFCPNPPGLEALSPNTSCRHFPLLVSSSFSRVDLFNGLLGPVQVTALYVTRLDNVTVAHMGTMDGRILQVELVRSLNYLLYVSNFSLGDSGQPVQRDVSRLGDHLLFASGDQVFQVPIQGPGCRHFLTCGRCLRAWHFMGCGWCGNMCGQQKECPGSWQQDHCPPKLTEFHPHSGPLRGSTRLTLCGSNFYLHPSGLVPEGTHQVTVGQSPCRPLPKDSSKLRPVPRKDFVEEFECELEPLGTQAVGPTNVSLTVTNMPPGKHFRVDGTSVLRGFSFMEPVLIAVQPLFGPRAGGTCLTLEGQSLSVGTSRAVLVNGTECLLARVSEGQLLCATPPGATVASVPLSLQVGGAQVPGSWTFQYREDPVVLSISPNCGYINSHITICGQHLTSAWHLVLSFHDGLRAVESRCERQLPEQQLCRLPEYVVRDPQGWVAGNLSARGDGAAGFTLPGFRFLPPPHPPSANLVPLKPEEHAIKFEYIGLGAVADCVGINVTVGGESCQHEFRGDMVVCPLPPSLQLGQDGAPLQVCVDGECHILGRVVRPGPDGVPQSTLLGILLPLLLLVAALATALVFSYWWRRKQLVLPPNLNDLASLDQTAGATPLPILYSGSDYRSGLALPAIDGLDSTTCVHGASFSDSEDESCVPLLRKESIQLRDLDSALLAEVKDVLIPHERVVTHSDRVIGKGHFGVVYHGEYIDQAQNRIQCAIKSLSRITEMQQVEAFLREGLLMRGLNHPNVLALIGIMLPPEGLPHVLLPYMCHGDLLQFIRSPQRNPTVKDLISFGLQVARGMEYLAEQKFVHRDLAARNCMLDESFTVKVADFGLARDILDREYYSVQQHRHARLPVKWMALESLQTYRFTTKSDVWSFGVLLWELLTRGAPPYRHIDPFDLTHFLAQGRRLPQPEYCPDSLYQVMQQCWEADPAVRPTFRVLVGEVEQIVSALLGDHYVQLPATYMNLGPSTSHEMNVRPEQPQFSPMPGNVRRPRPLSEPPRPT
Sequence of panel of human kinases (kinase named in endpoint) (Homo sapiens, UniProt Q13153) (Q13153 whole entry): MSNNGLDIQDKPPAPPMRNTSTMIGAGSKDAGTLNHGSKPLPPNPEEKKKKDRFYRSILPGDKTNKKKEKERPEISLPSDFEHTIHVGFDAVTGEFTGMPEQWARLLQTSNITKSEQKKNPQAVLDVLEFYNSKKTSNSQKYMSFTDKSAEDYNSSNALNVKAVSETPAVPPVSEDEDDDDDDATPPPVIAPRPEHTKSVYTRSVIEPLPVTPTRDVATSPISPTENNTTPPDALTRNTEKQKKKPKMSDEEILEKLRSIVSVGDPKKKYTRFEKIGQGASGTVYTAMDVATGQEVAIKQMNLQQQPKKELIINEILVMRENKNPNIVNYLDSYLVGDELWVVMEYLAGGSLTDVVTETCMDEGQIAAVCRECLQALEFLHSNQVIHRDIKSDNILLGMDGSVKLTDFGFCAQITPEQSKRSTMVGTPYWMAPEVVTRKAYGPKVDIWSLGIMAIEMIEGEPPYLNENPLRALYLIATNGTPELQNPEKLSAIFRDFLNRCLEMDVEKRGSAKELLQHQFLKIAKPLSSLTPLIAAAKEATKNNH
Sequence of panel of human kinases (kinase named in endpoint) (Homo sapiens, UniProt P29322) (P29322 28-1005): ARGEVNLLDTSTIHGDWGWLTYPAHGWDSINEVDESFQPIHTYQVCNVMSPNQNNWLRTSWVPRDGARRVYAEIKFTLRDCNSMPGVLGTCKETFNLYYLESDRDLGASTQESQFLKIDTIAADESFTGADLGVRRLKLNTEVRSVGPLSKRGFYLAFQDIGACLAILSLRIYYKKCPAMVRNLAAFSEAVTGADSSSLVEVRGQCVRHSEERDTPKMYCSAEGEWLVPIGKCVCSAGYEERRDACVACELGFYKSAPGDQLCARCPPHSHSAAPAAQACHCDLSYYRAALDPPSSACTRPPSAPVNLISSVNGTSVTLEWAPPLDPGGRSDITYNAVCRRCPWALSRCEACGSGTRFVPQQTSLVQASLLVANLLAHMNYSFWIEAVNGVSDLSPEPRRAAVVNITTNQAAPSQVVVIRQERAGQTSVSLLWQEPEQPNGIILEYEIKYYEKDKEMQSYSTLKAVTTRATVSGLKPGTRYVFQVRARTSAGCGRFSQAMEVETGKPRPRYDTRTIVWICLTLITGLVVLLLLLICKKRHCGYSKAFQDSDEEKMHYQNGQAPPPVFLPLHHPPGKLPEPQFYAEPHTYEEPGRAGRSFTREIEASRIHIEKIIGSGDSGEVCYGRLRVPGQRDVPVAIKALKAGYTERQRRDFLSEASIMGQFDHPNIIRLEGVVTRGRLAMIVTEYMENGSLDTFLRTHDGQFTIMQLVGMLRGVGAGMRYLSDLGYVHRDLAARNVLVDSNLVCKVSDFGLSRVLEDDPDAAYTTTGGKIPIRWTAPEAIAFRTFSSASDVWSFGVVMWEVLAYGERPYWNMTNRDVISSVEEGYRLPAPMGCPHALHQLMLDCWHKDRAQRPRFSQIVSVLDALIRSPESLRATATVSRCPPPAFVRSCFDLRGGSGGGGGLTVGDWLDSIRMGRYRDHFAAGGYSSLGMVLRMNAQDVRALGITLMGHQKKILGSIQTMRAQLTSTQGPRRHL
Sequence of panel of human kinases (kinase named in endpoint) (Homo sapiens, UniProt Q8N568) (Q8N568 whole entry): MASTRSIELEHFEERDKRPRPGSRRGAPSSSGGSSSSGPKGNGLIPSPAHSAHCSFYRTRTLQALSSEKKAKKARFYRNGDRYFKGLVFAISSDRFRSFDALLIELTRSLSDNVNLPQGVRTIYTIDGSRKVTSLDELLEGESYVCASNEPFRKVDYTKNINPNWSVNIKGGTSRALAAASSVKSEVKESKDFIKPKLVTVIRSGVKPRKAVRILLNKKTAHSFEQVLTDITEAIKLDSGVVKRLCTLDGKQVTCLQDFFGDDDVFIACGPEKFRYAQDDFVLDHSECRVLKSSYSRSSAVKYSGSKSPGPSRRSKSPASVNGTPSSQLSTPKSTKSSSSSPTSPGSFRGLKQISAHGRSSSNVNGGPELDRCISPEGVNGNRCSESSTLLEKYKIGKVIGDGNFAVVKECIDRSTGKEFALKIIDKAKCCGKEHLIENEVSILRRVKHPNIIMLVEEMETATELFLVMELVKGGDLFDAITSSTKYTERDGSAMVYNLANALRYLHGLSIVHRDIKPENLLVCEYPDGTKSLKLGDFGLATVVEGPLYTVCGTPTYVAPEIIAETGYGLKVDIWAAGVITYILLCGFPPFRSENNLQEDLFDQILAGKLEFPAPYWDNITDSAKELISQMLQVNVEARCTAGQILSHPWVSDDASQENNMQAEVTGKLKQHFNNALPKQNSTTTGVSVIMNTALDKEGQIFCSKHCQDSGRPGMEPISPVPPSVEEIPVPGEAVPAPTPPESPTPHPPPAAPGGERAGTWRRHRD

`CC(C)C(=O)Nc1nc2cc(-c3ccc4c(c3)c(C(=O)NC(C)c3ccccc3)cn4C)ccn2n1` (stereo not shown) [RI-962] gave an activity at 10 µM [1] of 124%, an activity at 10 µM [2] of 93% and an activity at 10 µM [3] of 110%. It also gave an activity at 10 µM [4] of 132%, an activity at 10 µM [5] of 92% and an activity at 10 µM [6] of 96%. It also gave an activity at 10 µM [7] of 108%, an activity at 10 µM [8] of 99% and an activity at 10 µM [9] of 85%. For the same compound, the activity at 10 µM [10] was 104%, the activity at 10 µM [11] was 77% and the activity at 10 µM [12] was 126%. The activity at 10 µM [13] was 85%, the activity at 10 µM [14] was 99% and the activity at 10 µM [15] was 102%. The activity at 10 µM [16] was 75%, the activity at 10 µM [17] was 99% and the activity at 10 µM [18] was 105%. For the same compound, the activity at 10 µM ([19]; read-out: Activity (%), Hck(h)) was 93%, the activity at 10 µM ([19]; read-out: Activity (%), Hck(h) activated) was 97% and the activity at 10 µM [20] was 105%. For the same compound, the “Activity (%), ACTR2(h)” value [21] was 81%, the “Activity (%), CK1(y)” value [21] was 100% and the “Activity (%), MAPK1(h)” value [21] was 94%. The “Activity (%), PKCβII(h)” value [21] was 87%, the “Activity (%), PKG1β(h)” value [21] was 98% and the activity at 10 µM [22] was 85%. It also gave an activity at 10 µM [23] of 77%, an activity at 10 µM [24] of 132% and an activity at 10 µM [25] of 88%. It also gave an activity at 10 µM [26] of 98%.
